A compilation of properties of binary mixtures (doi:10.1021/je5008857)

Assay: xn = mol fraction of the nth substance listed
Details: 101 kPa

CC(=O)[O-].[NH4+] + CC(=O)[O-].CC[n+]1ccn(C)c1
Details | electrical conductivity [S/m] | viscosity [mPa·s]
298.15 K, x1 = 0.0503 | 0.255 | 153
298.15 K, x1 = 0.0999 | 0.226 | 186
298.15 K, x1 = 0.1703 | 0.181 | 261
298.15 K, x1 = 0.2498 | 0.146 | 389
298.15 K, x1 = 0.328 | 0.114 | 572
303.15 K, x1 = 0.0503 | 0.337 | 111.7
303.15 K, x1 = 0.0999 | 0.299 | 134.7
303.15 K, x1 = 0.1703 | 0.242 | 186
303.15 K, x1 = 0.2498 | 0.199 | 271
303.15 K, x1 = 0.328 | 0.158 | 390
303.15 K, x1 = 0.4491 | 0.106 | 673
308.15 K, x1 = 0.0503 | 0.431 | 83.9
308.15 K, x1 = 0.0999 | 0.389 | 100.1
308.15 K, x1 = 0.1703 | 0.319 | 135.5
308.15 K, x1 = 0.2498 | 0.266 | 194
313.15 K, x1 = 0.0503 | 0.542 | 64.6
313.15 K, x1 = 0.2498 | 0.349 | 142.3
313.15 K, x1 = 0.4491 | 0.201 | 321
318.15 K, x1 = 0.0503 | 0.671 | 50.7
318.15 K, x1 = 0.0999 | 0.617 | 59.1
318.15 K, x1 = 0.1703 | 0.519 | 77.2
318.15 K, x1 = 0.4491 | 0.267 | 230
323.15 K, x1 = 0.0503 | 0.862 | 40.5
323.15 K, x1 = 0.0999 | 0.796 | 46.6
323.15 K, x1 = 0.1703 | 0.641 | 59.9
323.15 K, x1 = 0.2498 | 0.562 | 81.3
323.15 K, x1 = 0.328 | 0.471 | 108.4
323.15 K, x1 = 0.4491 | 0.347 | 169

CC(=O)[O-].[Na+] + CC(=O)[O-].CC[n+]1ccn(C)c1
Details | electrical conductivity, x1 = 0.0501 [S/m] | electrical conductivity, x1 = 0.1001 [S/m] | electrical conductivity, x1 = 0.1605 [S/m] | viscosity, x1 = 0.0501 [mPa·s] | viscosity, x1 = 0.1001 [mPa·s] | viscosity, x1 = 0.1605 [mPa·s]
298.15 K | 0.232 | 0.189 | 0.152 | 160 | 205 | 300
303.15 K | 0.305 | – | 0.207 | 117.1 | – | 210
308.15 K | 0.392 | 0.327 | 0.272 | 88 | 109.3 | 153
313.15 K | 0.491 | 0.416 | 0.352 | 67.7 | 83.1 | 113.7
318.15 K | 0.606 | 0.518 | 0.442 | 53.2 | 64.7 | 86.9
323.15 K | 0.734 | 0.632 | 0.537 | 42.7 | 51.3 | 67.9

CCS(=O)(=O)[O-].[NH4+] + CC(=O)[O-].CC[n+]1ccn(C)c1
Details | electrical conductivity, x1 = 0.05 [S/m] | electrical conductivity, x1 = 0.0999 [S/m] | electrical conductivity, x1 = 0.1701 [S/m] | viscosity, x1 = 0.05 [mPa·s] | viscosity, x1 = 0.0999 [mPa·s] | viscosity, x1 = 0.1701 [mPa·s]
298.15 K | 0.247 | 0.2 | 0.164 | 157 | 210 | 299
303.15 K | 0.323 | 0.266 | 0.222 | 115 | 151 | 210
308.15 K | 0.415 | 0.346 | 0.293 | 86.3 | 111.2 | 151
313.15 K | 0.522 | 0.442 | – | 66.2 | 83.9 | –
318.15 K | – | 0.553 | 0.481 | – | 64.6 | 84.7
323.15 K | 0.775 | – | – | 41.3 | – | –

N#C[S-].[Na+] + CC(=O)[O-].CC[n+]1ccn(C)c1
x1 = 0.0502
Details | electrical conductivity [S/m] | viscosity [mPa·s]
298.15 K | 0.242 | 150
303.15 K | 0.316 | 110.4
308.15 K | 0.404 | 83.3
313.15 K | 0.504 | 64.4
318.15 K | 0.618 | 50.9
323.15 K | 0.734 | 40.9

[Cl-].[NH4+] + CC(=O)[O-].CC[n+]1ccn(C)c1
Details | electrical conductivity, x1 = 0.0505 [S/m] | electrical conductivity, x1 = 0.0999 [S/m] | electrical conductivity, x1 = 0.1702 [S/m] | electrical conductivity, x1 = 0.25 [S/m] | electrical conductivity, x1 = 0.3297 [S/m] | viscosity, x1 = 0.0505 [mPa·s] | viscosity, x1 = 0.0999 [mPa·s] | viscosity, x1 = 0.1702 [mPa·s] | viscosity, x1 = 0.25 [mPa·s] | viscosity, x1 = 0.3297 [mPa·s]
298.15 K | – | 0.19 | 0.139 | 0.0911 | 0.0567 | – | 236 | 405 | 775 | 1608
303.15 K | – | 0.255 | 0.192 | 0.13 | 0.0843 | – | 168 | 278 | 511 | 1040.8
308.15 K | 0.398 | 0.333 | 0.259 | 0.179 | 0.121 | 92.9 | 122.6 | 196 | 348 | 693
313.15 K | 0.501 | – | – | 0.242 | 0.169 | 71 | – | – | 245 | 478
318.15 K | – | 0.537 | 0.439 | 0.32 | 0.23 | – | 70.2 | 106.2 | 177 | 339
323.15 K | – | 0.661 | 0.552 | 0.414 | 0.305 | – | 54.7 | 80.6 | 130.5 | 246

CC(=O)[O-].CC[n+]1ccn(C)c1 + CC(=O)[O-].[NH4+]
x2 = 0
Details | electrical conductivity [S/m] | viscosity [mPa·s]
298.15 K | 0.287 | 126.3
303.15 K | 0.374 | 93.6
308.15 K | 0.473 | 71.3
313.15 K | 0.587 | 55.5
318.15 K | 0.76 | 44.2

CC(=O)[O-].CC[n+]1ccn(C)c1 + CC(=O)[O-].[Na+]
x2 = 0
Details | electrical conductivity [S/m] | viscosity [mPa·s]
298.15 K | 0.287 | 126.3
303.15 K | 0.374 | 93.6
308.15 K | 0.473 | 71.3
313.15 K | 0.587 | 55.5
318.15 K | 0.76 | 44.2
323.15 K | 0.918 | 35.7

CC(=O)[O-].CC[n+]1ccn(C)c1 + CCS(=O)(=O)[O-].[NH4+]
x2 = 0
Details | electrical conductivity [S/m] | viscosity [mPa·s]
298.15 K | 0.287 | 126.3
308.15 K | 0.473 | 71.3
313.15 K | 0.587 | 55.5
323.15 K | 0.918 | 35.7

CC(=O)[O-].CC[n+]1ccn(C)c1 + N#C[S-].[Na+]
x2 = 0
Details | electrical conductivity [S/m] | viscosity [mPa·s]
298.15 K | 0.287 | 126.3
308.15 K | 0.473 | 71.3
318.15 K | 0.76 | 44.2
323.15 K | 0.918 | 35.7

CC(=O)[O-].CC[n+]1ccn(C)c1 + [Cl-].[NH4+]
x2 = 0
Details | electrical conductivity [S/m] | viscosity [mPa·s]
298.15 K | 0.287 | 126.3
303.15 K | 0.374 | 93.6
313.15 K | 0.587 | 55.5
323.15 K | 0.918 | 35.7
